Results from publication PMC10065799, “High-throughput profiling of sequence recognition by tyrosine kinases and SH2 domains using bacterial peptide display” (eLife, 2023).

Key:
EPHB2 kinase domain [1] = assay: ADP-Quest continuous fluorimetric kinase assay (initial rates of consensus peptides); type: biochemical, human; details: peptide 100 μM, kinase 10–50 nM; Figure 2C
From the text: (§1) A fluorescence-based assay from Eurofins (ADP Quest) was used to measure the Michaelis-Menten kinetic parameters for phosphorylation of the consensus peptides by purified tyrosine kinase domains. In this assay, ADP production as a result of kinase activity is coupled to the production of resorufin, a fluorophore that emits signal at 590 nm. For all experiments, the assay reactions were set up as described in the provided assay kit protocol, in a 384 well plate format. The peptide solutions were serially diluted in 100 mM Tris, pH 8.0, and the kinases were diluted to 50 nM in buffer (10 mM HEPES, 100 mM NaCl, 1 mM TCEP, 5 mM MgCl2, 10% (v/v) glycerol). The final reaction mixtures contained 10 nM of kinase with 100 μM of ATP. […] Phosphorylation reaction progress was monitored by measuring fluorescence at excitation 530 nm and emission 590 nm every 2 min at 37 °C on a plate reader (BioTek Synergy Neo 2). The fluorescence units (RFU) were converted to μM ADP by comparison to a standard curve, and the initial rates were extracted from the linear regime of the reaction progress curves. Initial rates were also measured for samples containing each kinase but lacking a peptide substrate, to account for background ATP hydrolysis. This background rate was subtracted from the rates measured in the presence of peptide. […]

c-Abl kinase domain [2] = molecular target: T1, c-Abl kinase domain (Mus musculus, UniProt P00520); assay: ADP-Quest continuous fluorimetric kinase assay (Michaelis-Menten parameters and initial rates); type: biochemical; details: peptide 100 μM, kinase 10–50 nM; Figure 2C
T1 sequence (P00520 242-493 limits assumed): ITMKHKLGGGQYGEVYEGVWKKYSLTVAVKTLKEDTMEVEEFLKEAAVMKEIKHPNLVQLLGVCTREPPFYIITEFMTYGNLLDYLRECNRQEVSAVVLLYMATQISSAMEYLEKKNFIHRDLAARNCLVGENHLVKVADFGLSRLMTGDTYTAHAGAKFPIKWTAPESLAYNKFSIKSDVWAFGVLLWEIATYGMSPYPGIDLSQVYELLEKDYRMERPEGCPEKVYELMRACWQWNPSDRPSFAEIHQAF
From the text: as §1

EPHB1 kinase domain = assay: pTyr-Var library bacterial peptide display kinase screen (enrichment scores); type: biochemical, human; details: for Screen (variant relative to reference peptide, measured in the pTyr-Var library screen): sheet "EPHB1", variant seq vs reference seq, bacterial peptide display enrichment; for Screen: sheet EPHB1, effect of the variant peptide relative to its reference peptide in the pTyr-Var library screen (enrichment scores)
EPHB2 kinase domain [3] = assay: as above; type: biochemical, human; details: sheet EPHB2
Fer kinase domain = assay: as above; type: biochemical, mouse; details: sheet "Fer"
c-Abl kinase domain [4] = molecular target: T1, c-Abl kinase domain; assay: as above; type: biochemical
c-Src kinase domain = c-Src kinase domain (Homo sapiens, UniProt P12931); assay: as above; type: biochemical; details: sheet "Src";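 note: log2 fold change in enrichment of variant over reference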
[5] = effect of the variant relative to its reference peptide in the pTyr-Var library screen
[6] = variant peptide relative to its reference peptide, pTyr-Var library screen enrichment
[7] = sheet "Abl", effect of variant peptide relative to its reference peptide in pTyr-Var library screen (enrichment)
[8] = variant peptide versus its reference peptide in the pTyr-Var library screen
[9] = value of the variant peptide against its reference peptide in the pTyr-Var library screen with Fer
[10] = effect of the variant peptide relative to its reference peptide in the pTyr-Var library screen
[11] = effect of variant peptide relative to its reference peptide in the pTyr-Var library screen (enrichment scores)
[12] = fig5-data2, sheet "Abl", Screen for the variant/reference peptide pair, pTyr-Var library

Row | Substance | Screen (EPHB1 kinase domain) | Screen (Fer kinase domain; [9]) | Screen (c-Src kinase domain; [10]) | Screen (EPHB2 kinase domain [3]; [11]) | also measured
1 | Ac-GPPEPIYEVPPPKKKG-NH2 [EPHB2 Consensus, EPHB2 consensus substrate peptide from X5-Y-X5 screen] | – | – | – | – | phosphorylation of consensus peptide by EPHB2 (initial rate relative to cognate consensus) (EPHB2 kinase domain [1]): efficiently phosphorylated; phosphorylation of consensus peptide by c-Abl (initial rate relative to cognate consensus) (c-Abl kinase domain [2]): efficiently phosphorylated
2 | DASENYFVMDS [TMEM240_Y77_T80M] | – | – | – | – | Screen (variant relative to reference peptide, measured in the pTyr-Var library screen) (EPHB1 kinase domain): 2.244; Screen (EPHB2 kinase domain [3]; [5]): 2.274
3 | DNEAIYDICRC [TUBA4A_Y210_R215C] | – | – | – | – | Screen (variant relative to reference peptide, measured in the pTyr-Var library screen) (EPHB1 kinase domain): -1.159; Screen (Fer kinase domain; [6]): -0.3932; Screen (c-Abl kinase domain [4]; [7]): -0.2438; Screen (c-Src kinase domain; [8]): 0.192; Screen (EPHB2 kinase domain [3]; [5]): -0.1529
4 | DSFATYFRWVL [H2BW1_Y84_R87W] | 1.664 | 2.515 | 2.683 | – | –
5 | DSNLIYSQIWS [FCRL3_Y662_P660L] | -0.4048 | -0.3219 | -0.2629 | -0.3687 | –
6 | EAVSIYQFFGQ [CBLC_Y402_H405Y_YF] | 2.283 | -0.2521 | -0.1267 | 1.796 | –
7 | FADGVYLALEE [DUOX2_Y70_Q71L_YF] | -0.7119 | – | -0.6157 | -0.6876 | –
8 | FAELMYTGFWH [ASS1_Y322_V321M] | 0.6121 | -0.4066 | -0.1313 | 0.8429 | –
9 | FFPANYVAPMT [GRAP2_Y324_L319F] | 0.4698 | – | – | 0.7095 | –
10 | FVFSFYHAFSG [ACTN4_Y265_S262F_YF] | -0.8684 | – | -2.513 | – | –
11 | GNLLIYTDFGK [HGD_Y166_E168D] | 0.7596 | – | -0.3604 | – | –
12 | HGEAFYSEVKA [PAK5_Y182_P187A_YF] | -0.6457 | -0.1663 | – | – | Screen (c-Src kinase domain; [8]): 0.7945
13 | HRGHLYLAIEF [TEK_Y899_Y897H_YF] | – | – | – | – | Screen (variant relative to reference peptide, measured in the pTyr-Var library screen) (EPHB1 kinase domain): 0.9917; Screen (c-Src kinase domain; [8]): 2.155
14 | ITNLLYHVVSW [GBA_Y412_G416S] | 0.5526 | – | -0.28 | 0.7379 | –
15 | LASLIYNFILF [AQP6_Y231_V234I] | 0.3462 | 0.3008 | 0.7887 | -1.512 | –
16 | LENSTYQFICV [CRB1_Y760_R764C_YF] | -0.5365 | -1.109 | -1.066 | 0.2665 | Screen (c-Abl kinase domain [4]; [12]): 0.05369
17 | LGQRIYQFIRS [DYRK1B_Y271_Q275R_YF] | -0.4041 | -0.8955 | -0.5682 | -1.048 | –
18 | LIFVSYDDWDF [GRIN2A_Y281_S278F_YF] | 0.6915 | -0.259 | 0.7047 | 1.496 | –

Row | Substance | Screen (EPHB1 kinase domain) | Screen (Fer kinase domain; [9]) | Screen (c-Src kinase domain; [10]) | Screen (EPHB2 kinase domain [3]; [11]) | also measured
19 | LLDGEYFTLQI [TP53_Y327_P322L] | – | – | – | – | Screen (variant relative to reference peptide, measured in the pTyr-Var library screen) (EPHB1 kinase domain): 0.245; Screen (Fer kinase domain; [6]): 0.2479; Screen (c-Src kinase domain; [8]): 0.8932
20 | LPEENYQVLCF [ARHGAP1_Y365_R369C] | 1.32 | 1.701 | 2.107 | 1.989 | –
21 | LRWREYQRQDF [PRKRIP1_Y90_R87W_YF] | 1.398 | 1.318 | – | 1.877 | Screen (c-Src kinase domain; [8]): 1.62
22 | LTERDYSFVTT [ACTG2_Y199_G198D] | 1.497 | 1.738 | – | 1.327 | –
23 | MSRNLYSGDCF [DDR2_Y736_Y740C_YF] | -1.85 | -0.7796 | -1.107 | -2.168 | –
24 | NIEPIYLNMLL [ATR_Y317_V316I] | 0.9992 | 0.3194 | 0.03812 | 1.556 | –
25 | NPIGLYSAEIL [LDB3_Y202_T206I] | 0.7886 | 1.652 | – | 0.5797 | –
26 | NREGVYRVFAP [TGFBI_Y537_T538R] | – | – | – | – | Screen (variant relative to reference peptide, measured in the pTyr-Var library screen) (EPHB1 kinase domain): -2.691; Screen (Fer kinase domain; [6]): -4.485; Screen (c-Src kinase domain; [8]): -0.9266; Screen (EPHB2 kinase domain [3]; [5]): -2.433
27 | NTILLYHIMAW [GPR143_Y157_S152N] | 0.2317 | – | – | 0.3631 | Screen (c-Abl kinase domain [4]; [12]): 0.6057
28 | PIFLFYLMDLS [ITGB2_Y131_D128Y_YF] | 1.841 | – | -0.3916 | – | –
29 | PTKNDYWAMPA [WWOX_Y287_L291P] | – | – | – | – | Screen (variant relative to reference peptide, measured in the pTyr-Var library screen) (EPHB1 kinase domain): 3.488; Screen (c-Abl kinase domain [4]; [7]): -1.562; Screen (EPHB2 kinase domain [3]; [5]): 3.139
30 | QNTGDYCDLFG [PTPN11_Y62_Y63C_YF] | -1.22 | – | – | -1.274 | Screen (c-Src kinase domain; [8]): -0.9656
31 | RAILLYEFVGK [NATD1_Y45_V42I_YF] | 1.082 | 1.125 | – | 1.274 | Screen (c-Src kinase domain; [8]): 1.103
32 | RGDCMYASLLG [AR_Y269_P271S] | -1.7 | -2.075 | 0.07196 | -2.657 | –
33 | RKVLVYDKLNV [ROR2_Y624_N620K] | -0.6022 | – | – | -1.435 | Screen (Fer kinase domain; [6]): -1.726; Screen (c-Src kinase domain; [8]): -1.144
34 | RRIFSYRGHLW [VHL_Y112_H110Y_YF] | – | – | – | – | Screen (variant relative to reference peptide, measured in the pTyr-Var library screen) (EPHB1 kinase domain): -1.652; Screen (c-Abl kinase domain [4]; [7]): -4.34; Screen (c-Src kinase domain; [8]): -2.013
35 | SCPANYFAFKI [FAM3D_Y65_P60S] | -0.6297 | – | -0.7557 | -0.7683 | –
36 | SPPILYSFFLN [FCRL6_Y239_D244N_YF] | 0.08597 | 1.473 | 0.0865 | 0.2765 | –
